{"source": "ChEMBL document CHEMBL5518235", "about": "“Identification of Novel Series of Potent and Selective Relaxin Family Peptide Receptor 1 (RXFP1) Agonists” (J Med Chem, 2024)", "key": {"[1]": {"assay": "Metabolic stability in cryopreserved human hepatocytes assessed as unbound intrinsic clearance measured per 10^6 cells at 1 uM measured after 120 mins by LC-MS/MS analysis", "format": "ADME, cell-based, Hepatocyte", "conditions": "2 h"}, "[2]": {"assay": "Cytotoxicity against human HepG2 cells cultured as C3a spheroids assessed as reduction in cell viability", "format": "toxicity, cell-based"}, "[3]": {"target": "Sodium channel protein type 5 subunit alpha (Homo sapiens, UniProt Q14524)", "sequence (Q14524 whole entry)": "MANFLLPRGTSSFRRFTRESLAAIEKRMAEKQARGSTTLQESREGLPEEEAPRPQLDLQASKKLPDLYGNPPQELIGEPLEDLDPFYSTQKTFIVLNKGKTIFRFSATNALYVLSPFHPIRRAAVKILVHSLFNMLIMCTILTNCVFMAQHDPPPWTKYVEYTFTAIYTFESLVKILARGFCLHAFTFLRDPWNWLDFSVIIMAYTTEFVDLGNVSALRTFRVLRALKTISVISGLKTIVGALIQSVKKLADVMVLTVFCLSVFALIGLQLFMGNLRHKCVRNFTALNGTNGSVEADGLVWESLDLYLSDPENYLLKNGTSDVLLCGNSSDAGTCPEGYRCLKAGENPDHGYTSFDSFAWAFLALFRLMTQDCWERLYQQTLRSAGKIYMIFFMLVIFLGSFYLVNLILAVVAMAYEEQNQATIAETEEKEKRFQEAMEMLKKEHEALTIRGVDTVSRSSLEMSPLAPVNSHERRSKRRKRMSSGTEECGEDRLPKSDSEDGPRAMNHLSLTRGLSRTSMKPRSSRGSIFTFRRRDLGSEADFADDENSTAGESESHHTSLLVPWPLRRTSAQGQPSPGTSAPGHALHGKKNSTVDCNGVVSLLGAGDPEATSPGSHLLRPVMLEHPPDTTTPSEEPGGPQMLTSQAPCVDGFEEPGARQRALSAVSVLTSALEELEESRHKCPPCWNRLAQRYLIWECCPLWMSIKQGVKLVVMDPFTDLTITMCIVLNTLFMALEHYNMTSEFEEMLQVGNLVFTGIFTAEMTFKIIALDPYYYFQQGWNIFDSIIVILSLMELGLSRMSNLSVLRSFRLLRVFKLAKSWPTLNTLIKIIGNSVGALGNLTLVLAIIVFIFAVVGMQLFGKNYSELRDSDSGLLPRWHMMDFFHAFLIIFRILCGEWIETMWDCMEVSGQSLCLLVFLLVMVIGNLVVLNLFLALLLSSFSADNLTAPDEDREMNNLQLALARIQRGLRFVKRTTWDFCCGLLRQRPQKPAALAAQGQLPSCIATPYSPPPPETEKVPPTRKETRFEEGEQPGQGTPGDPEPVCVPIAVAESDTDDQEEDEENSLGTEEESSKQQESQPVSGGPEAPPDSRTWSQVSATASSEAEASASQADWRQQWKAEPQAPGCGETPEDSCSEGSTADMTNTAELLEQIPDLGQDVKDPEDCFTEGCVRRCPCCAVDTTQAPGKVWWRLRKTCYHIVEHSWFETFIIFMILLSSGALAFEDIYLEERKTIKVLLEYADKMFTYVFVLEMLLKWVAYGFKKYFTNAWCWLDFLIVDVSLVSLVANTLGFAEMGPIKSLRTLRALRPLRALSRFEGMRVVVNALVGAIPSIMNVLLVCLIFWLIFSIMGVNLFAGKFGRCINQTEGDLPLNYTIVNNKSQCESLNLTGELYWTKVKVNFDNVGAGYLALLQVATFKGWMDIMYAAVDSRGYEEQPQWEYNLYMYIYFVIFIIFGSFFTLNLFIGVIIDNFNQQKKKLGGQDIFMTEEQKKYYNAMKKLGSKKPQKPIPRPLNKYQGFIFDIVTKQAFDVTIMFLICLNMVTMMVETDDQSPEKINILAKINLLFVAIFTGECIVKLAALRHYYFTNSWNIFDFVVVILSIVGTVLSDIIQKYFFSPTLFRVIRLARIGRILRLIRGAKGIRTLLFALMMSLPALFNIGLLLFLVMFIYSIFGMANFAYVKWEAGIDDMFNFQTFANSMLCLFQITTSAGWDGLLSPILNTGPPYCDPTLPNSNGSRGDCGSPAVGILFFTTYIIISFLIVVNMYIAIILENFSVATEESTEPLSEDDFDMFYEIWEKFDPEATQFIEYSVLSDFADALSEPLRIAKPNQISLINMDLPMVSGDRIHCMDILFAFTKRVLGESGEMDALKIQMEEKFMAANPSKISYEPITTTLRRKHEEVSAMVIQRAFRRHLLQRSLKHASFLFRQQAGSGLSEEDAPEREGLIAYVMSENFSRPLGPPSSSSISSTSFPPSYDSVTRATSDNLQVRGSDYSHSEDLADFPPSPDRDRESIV", "assay": "Inhibition of human Nav1.5 by automated electrophysiology recording", "format": "toxicity"}, "[4]": {"assay": "Protein binding in rat plasma assessed as free fraction at 5 uM incubated for 18 hrs by equilibrium dialysis based LC-MS/MS analysis", "format": "ADME, cell-free"}, "[5]": {"assay": "Clearance in Han Wistar rat at 0.73 micromol/kg, iv by LC-MS/MS analysis", "format": "ADME, organism-based", "conditions": "in vivo, dose 0.73 µmol/kg"}, "[6]": {"target": "T1, Relaxin receptor 1 (Homo sapiens, UniProt Q9HBX9)", "T1 sequence (Q9HBX9 whole entry)": "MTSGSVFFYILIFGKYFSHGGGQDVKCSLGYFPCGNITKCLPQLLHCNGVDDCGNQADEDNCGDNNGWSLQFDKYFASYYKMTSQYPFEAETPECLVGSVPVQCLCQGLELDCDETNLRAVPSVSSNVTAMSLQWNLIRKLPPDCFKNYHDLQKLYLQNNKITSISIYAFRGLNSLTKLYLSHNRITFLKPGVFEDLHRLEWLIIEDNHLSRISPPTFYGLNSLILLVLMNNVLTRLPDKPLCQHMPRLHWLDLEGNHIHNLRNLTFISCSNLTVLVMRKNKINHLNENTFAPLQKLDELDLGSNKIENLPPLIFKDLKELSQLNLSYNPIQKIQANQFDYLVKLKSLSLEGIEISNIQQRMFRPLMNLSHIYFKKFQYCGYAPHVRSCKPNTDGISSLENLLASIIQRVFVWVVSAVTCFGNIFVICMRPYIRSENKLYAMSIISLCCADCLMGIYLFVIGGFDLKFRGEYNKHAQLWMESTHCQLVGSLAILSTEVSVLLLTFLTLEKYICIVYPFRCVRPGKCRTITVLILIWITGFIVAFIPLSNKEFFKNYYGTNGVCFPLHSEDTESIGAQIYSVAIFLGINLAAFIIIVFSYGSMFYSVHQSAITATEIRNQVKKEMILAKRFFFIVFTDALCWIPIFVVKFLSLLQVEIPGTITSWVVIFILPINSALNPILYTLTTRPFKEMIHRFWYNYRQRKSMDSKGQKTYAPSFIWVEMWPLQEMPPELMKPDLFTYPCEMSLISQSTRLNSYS", "assay": "Agonist activity at human RXFP1 expressed in T-Rex-CHO-K1 cells assessed as stimulation of cAMP production by measuring unbound concentration incubated for 45 mins by HTRF assay"}, "[7]": {"assay": "Unbound Cmax in Sprague-Dawley rat at 1.5 mg/kg, iv administered via bolus followed by 9.0 mg/kg, iv administered via infusion for 3 hrs and measured 1 hrs post washout by LC-MS/MS analysis", "format": "ADME, organism-based", "conditions": "in vivo"}}}
{"molecule": "COc1cc(F)c(O[C@H]2CC[C@@](C)(C(=O)O)CC2)cc1C(=O)N[C@@H]1[C@H]2CC[C@H](C2)[C@@H]1C(=O)Nc1ccc(F)c(S(F)(F)(F)(F)F)c1", "values": [{"measurement": "CL free", "setting": "[1]", "value": 2.1, "unit": "µL/min"}, {"measurement": "IC50", "setting": "[2]", "value": 17, "unit": "µM"}, {"measurement": "IC50", "setting": "[3]", "value": 21, "unit": "µM"}, {"measurement": "fraction unbound at 18 h, 5 µM", "setting": "[4]", "value": 0.0015}, {"measurement": "clearance", "setting": "[5]", "value": 38, "unit": "mL/min/kg"}, {"measurement": "EC50", "setting": "[6]", "value": "< 31.6", "unit": "pM"}, {"measurement": "fCmax", "setting": "[7]", "value": 10, "unit": "nM"}]}
